From patent US20240050563A1, “Combination Treatment of Cancer” (Ares Trading S.A., priority 2020, published 2024)

Tested on: MC38 colon carcinoma cells
Test: Syngeneic MC38 tumor model (tumor volume monitoring)
Assay type: in vivo, C57/BL6 mice
Conditions: MCT4 inhibitor 30 mg/kg p.o. qd, bintrafusp alfa 492 μg/animal i.v. day 0, 3, 6; for % T/C: Day 20, versus Group 1 control (vehicle + mutant non-binding anti-PD-L1 antibody); for reduction of tumor growth: MC38 tumor-bearing C57/BL6 mice, study end day 20
Method: MC38 colon carcinoma cells were obtained from Scripps Research Institute. Cells were tested and verified to be free of adventitious viruses and mycoplasma.
MC38 cells were cultured in DMEM containing 4.5 g/L D-glucose, 2 mM glutamine, and 110 mg/L sodium pyruvate and supplemented with 10% FBS. All cells were maintained at 37° C. and 5% CO2 in aseptic conditions. Cells were passaged upon reaching 50-85% confluence for a total of 2 to 15 passages prior to in vivo implantation. Cells were harvested by trypsinization with TrypLE Express and viable cell counts were determined using a Countess or […] cell counter and trypan blue exclusion staining.
Female C57/BL6 mice were obtained from Charles River Laboratories. They were inoculated (s.c. in the right dorsal flank) with 1×10^6 MC38 cells in 0.1 mL sterile PBS. Treatment was initiated when tumors reached an average volume of approximately 50-80 mm^3 (Day 0).
Test groups of the MC38 tumor-bearing mice (8 animals in each group) were treated with both vehicle (20% Kleptose (HPB) in 50 mM Phosphate pH 7.4 buffer) and a mutant, non-binding anti-PD-L1 antibody (Group 1, control), the MCT4 inhibitor described as Compound 367 in WO 2020/127960 (5-{2-[5-chloro-2-(5-ethoxyquinoline-8-sulfonamido)phenyl]ethynyl}-4-methoxypyridine-2-carboxylic acid; commercially available from, e.g., Selleck Chemicals) (Group 2), bintrafusp alfa (Group 3), or a combination of Compound 367 and bintrafusp alfa (Group 4). In Group 1 (Control Group) the vehicle was administered at 10 ml/kg animal weight, p.o. once daily and Mut PD-L1 i.v. at day 0, 3, and 6 (400 μg/animal). In Groups 2 and 4 the MCT4 inhibitor was administered at 30 mg/kg animal weight (p.o. administration, once per day (qd)). In Groups 3 and 4 bintrafusp alfa was administered 492 μg/animal at day 0, 3, and 6 (i.v. administration). At day 20 the study was terminated. Efficacy of the treatment was evaluated by monitoring tumor volume over the course of the study.

Molecule	% T/C [%]	reduction of tumor growth [%]
CCOc1ccc(S(=O)(=O)Nc2ccc(Cl)cc2C#Cc2cnc(C(=O)O)cc2OC)c2ncccc12 [MCT4 inhibitor, 5-{2-[5-chloro-2-(5-ethoxyquinoline-8-sulfonamido)phenyl]ethynyl}-4-methoxypyridine-2-carboxylic acid]	79.1	20
bintrafusp alfa: anti-PD-L1:TGFβRII fusion protein, CAS 1918149-01-5; light chain SEQ ID NO: 7, heavy chain SEQ ID NO: 8	79.7	20
